In assay [1] the target is T1, Signal transducer and activator of transcription 6 (Homo sapiens, UniProt P42226).
T1 sequence (P42226 whole entry): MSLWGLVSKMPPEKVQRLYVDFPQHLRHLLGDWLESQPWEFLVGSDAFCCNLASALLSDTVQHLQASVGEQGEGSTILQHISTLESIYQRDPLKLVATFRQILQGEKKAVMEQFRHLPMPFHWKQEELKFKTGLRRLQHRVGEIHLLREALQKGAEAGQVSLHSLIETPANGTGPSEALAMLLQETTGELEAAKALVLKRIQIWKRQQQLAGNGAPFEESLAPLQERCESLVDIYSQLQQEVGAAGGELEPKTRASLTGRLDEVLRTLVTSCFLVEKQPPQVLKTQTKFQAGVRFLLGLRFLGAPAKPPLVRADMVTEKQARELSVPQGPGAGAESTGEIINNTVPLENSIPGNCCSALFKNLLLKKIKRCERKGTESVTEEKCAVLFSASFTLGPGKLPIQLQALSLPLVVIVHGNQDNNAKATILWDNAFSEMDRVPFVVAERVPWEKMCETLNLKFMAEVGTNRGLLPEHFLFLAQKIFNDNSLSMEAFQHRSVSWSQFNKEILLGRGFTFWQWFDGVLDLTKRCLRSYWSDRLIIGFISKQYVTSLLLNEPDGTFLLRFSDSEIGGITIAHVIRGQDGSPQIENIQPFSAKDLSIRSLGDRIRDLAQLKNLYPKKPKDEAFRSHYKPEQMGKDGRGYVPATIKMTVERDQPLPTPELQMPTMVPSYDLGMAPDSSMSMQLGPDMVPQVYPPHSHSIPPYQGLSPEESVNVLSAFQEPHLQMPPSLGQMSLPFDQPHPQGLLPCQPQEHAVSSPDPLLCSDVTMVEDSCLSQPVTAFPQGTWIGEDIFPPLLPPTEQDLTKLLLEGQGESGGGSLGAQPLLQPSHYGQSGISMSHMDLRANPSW
As to the kind of experiment: Binding affinity to STAT6 SH2 domain (unknown origin) assessed as inhibition constant by FP assay.

The target in assay [2] is T2, Signal transducer and activator of transcription 5B (Homo sapiens, UniProt P51692).
T2 sequence (P51692 whole entry): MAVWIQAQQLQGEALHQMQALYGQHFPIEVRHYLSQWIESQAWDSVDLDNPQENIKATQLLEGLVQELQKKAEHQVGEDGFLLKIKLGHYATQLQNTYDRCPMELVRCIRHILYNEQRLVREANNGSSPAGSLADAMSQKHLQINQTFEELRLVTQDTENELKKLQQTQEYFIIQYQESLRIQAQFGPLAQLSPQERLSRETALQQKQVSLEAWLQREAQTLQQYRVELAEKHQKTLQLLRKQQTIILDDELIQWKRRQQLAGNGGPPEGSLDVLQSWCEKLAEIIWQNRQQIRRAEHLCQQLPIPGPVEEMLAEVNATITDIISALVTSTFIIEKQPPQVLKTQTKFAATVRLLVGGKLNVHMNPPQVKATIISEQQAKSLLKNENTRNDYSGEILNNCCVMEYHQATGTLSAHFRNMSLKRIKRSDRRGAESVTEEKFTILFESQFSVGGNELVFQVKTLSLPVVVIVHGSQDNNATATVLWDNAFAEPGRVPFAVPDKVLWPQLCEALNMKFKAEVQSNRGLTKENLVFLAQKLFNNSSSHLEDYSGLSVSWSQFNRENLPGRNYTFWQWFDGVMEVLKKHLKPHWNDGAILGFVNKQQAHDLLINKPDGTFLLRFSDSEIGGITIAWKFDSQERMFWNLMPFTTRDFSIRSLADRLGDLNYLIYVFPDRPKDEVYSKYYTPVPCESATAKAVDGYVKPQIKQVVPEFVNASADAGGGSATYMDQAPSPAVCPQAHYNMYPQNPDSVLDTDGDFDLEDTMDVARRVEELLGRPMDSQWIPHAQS
In words: Binding affinity to STAT5B (unknown origin) assessed as inhibition constant by FP assay.

The target of assay [3] is T3, Signal transducer and activator of transcription 5A (Homo sapiens, UniProt P42229).
T3 sequence (P42229 whole entry): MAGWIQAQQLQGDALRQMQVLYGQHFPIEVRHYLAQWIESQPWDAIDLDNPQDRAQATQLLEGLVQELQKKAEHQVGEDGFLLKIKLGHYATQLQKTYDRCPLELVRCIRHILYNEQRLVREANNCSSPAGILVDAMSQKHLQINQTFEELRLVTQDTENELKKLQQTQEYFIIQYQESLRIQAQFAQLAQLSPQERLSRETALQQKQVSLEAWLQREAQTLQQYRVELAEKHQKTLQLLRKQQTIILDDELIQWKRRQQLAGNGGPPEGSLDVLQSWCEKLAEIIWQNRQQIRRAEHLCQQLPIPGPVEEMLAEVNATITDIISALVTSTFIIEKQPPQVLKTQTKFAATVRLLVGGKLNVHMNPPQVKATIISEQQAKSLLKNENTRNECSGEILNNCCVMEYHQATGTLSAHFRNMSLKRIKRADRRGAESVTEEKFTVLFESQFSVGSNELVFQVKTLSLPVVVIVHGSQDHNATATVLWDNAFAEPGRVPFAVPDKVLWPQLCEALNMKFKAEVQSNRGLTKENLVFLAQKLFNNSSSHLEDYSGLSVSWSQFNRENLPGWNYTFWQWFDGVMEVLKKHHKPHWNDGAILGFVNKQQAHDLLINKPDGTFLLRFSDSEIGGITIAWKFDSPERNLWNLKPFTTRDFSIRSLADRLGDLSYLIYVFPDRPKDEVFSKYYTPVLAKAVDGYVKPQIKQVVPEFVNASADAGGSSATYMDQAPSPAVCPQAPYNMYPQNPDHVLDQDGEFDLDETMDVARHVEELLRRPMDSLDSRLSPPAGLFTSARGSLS
As to the kind of experiment: Binding affinity to N-terminal 6his-tagged human STAT5A (136 to 705 residues) expressed in Escherichia coli BL21-DE3 rosetta cells assessed as inhibition constant by FP assay.

Assay [4] concerns the target T3, Signal transducer and activator of transcription 5A. In words: Induction of STAT5 degradation in human SKNO-1 cells measured for 18 hrs by Western blot analysis. It counts as cell-based.
Assay [5] addresses T1, Signal transducer and activator of transcription 6. As to the kind of experiment: Induction of STAT6 degradation in human SKNO-1 cells measured for 18 hrs by Western blot analysis. It counts as cell-based.
The target of assay [6] is T4, Signal transducer and activator of transcription 5A (Homo sapiens) (UniProt P42229).
T4 sequence (whole entry): T3 sequence (P42229 whole entry)
In words: Induction of STAT5 degradation in human SKNO-1 cells assessed as maximal degradation at 0.05 to 5 uM measured for 18 hrs by Western blot analysis relative to control. Type of assay: cell-based. To be noted: dose 0.05-5 µM. For orientation: A western blot detects proteins with antibodies after separation by electrophoresis.

SMILES strings stand for the structures.

With `CN(C)C(=O)CCN(C(=O)[C@@H]1CCCN1C(=O)[C@H](CCc1ccccc1)NC(=O)c1cc2cc(C(F)(F)P(=O)(O)O)ccc2s1)c1ccc(-c2nccs2)cc1`, the Ki (as a rule, the equilibrium dissociation constant of an inhibitor or competing ligand from its target) in assay [1] amounted to 1500 nM; in assay [2], 1600 nM; in assay [3] it was 1400 nM.
The like results for `CN(C)C(=O)CCN(C(=O)[C@@H]1CCCN1C(=O)[C@@H](NC(=O)c1cc2cc(C(F)(F)P(=O)(O)O)ccc2s1)C1CC1)c1ccc(-c2nccs2)cc1` were, in that order, 1300 nM, 3100 nM and 2900 nM.
Take `CC(C)(C)[C@H](NC(=O)c1cc2cc(C(F)(F)P(=O)(O)O)ccc2s1)C(=O)N1CCC[C@H]1C(=O)N(CCC(=O)N1CC(CCC#Cc2cccc3c2CN(C2CCC(=O)NC2=O)C3=O)C1)c1ccc(Br)cc1` (some centres not stated): the results for the DC50 in assay [4] and in assay [5] were 4200 nM and “Not Active”, respectively.
For `CC(C)(C)[C@H](NC(=O)c1cc2cc(C(F)(F)P(=O)(O)O)ccc2s1)C(=O)N1CCC[C@H]1C(=O)N(CCC(=O)N1CC(CC#Cc2cccc3c2CN(C2CCC(=O)NC2=O)C3=O)C1)c1ccc(Br)cc1` (some centres not stated), in that order: over 5000 nM and “Not Active”.
`CC(C)(C)[C@H](NC(=O)c1cc2cc(C(F)(F)P(=O)(O)O)ccc2s1)C(=O)N1CCC[C@H]1C(=O)N(CCC(=O)NCCCCCCC#Cc1cccc2c1CN(C1CCC(=O)NC1=O)C2=O)c1ccc(Br)cc1` (some centres not stated): the values for the DC50 in assay [4] and in assay [5] (read-out: DC50) were 1400 nM and over 5 µM, respectively.
Regarding `CN(C)C(=O)CCN(C(=O)[C@@H]1CCCN1C(=O)[C@H](Cc1ccc(Br)cc1)NC(=O)c1cc2cc(C(F)(F)P(=O)(O)O)ccc2s1)c1ccc(-c2nccs2)cc1`, the values for the Ki in assay [1], in assay [2] and in assay [3] were 3000 nM, 1600 nM and 1200 nM, respectively.
As to `CC(C)(C)[C@H](NC(=O)c1cc2cc(C(F)(F)P(=O)(O)O)ccc2s1)C(=O)N1CCC[C@H]1C(=O)N(CCC(=O)N1CCC(C#Cc2cccc3c2CN(C2CCC(=O)NC2=O)C3=O)CC1)c1ccc(Br)cc1` (some centres not stated), the DC50 (in general, the concentration giving 50% degradation) in assay [4] is over 5000 nM; in assay [5], “Not Active”.
`CN(C)C(=O)CCN(C(=O)[C@@H]1CCCN1C(=O)[C@@H](NC(=O)c1cc2cc(C(F)(F)P(=O)(O)O)ccc2s1)C(C)(C)C)c1cccc(-c2nccs2)c1`: the Ki in assay [1] came out at 1900 nM; in assay [2], 6100 nM; in assay [3], 4900 nM.
As for `CC(C)(C)[C@H](NC(=O)c1cc2cc(C(F)(F)P(=O)(O)O)ccc2s1)C(=O)N1CCC[C@H]1C(=O)N(CCC(=O)N1CCC(Nc2cccc3c2CN(C2CCC(=O)NC2=O)C3=O)CC1)c1ccc(Br)cc1` (some centres not stated), the DC50 in assay [4] is over 5000 nM; in assay [5], “Not Active”.
For `CC(C)(C)[C@H](NC(=O)c1cc2cc(C(F)(F)P(=O)(O)O)ccc2s1)C(=O)N1CCC[C@H]1C(=O)N(CCC(=O)NCCC#Cc1cccc2c1CN(C1CCC(=O)NC1=O)C2=O)c1ccc(Br)cc1` (some centres not stated), the DC50 in assay [4] was over 5000 nM; in assay [5] (read-out: DC50), over 5 µM.
The like results for `CC(C)(C)[C@H](NC(=O)c1cc2cc(C(F)(F)P(=O)(O)O)ccc2s1)C(=O)N1CCC[C@H]1C(=O)N(CCC(=O)NCCCCC#Cc1cccc2c1CN(C1CCC(=O)NC1=O)C2=O)c1ccc(Br)cc1` (some centres not stated) were, in that order, 500 nM and over 5 µM.
For the molecule `CN(C)C(=O)CCN(C(=O)[C@@H]1CCCN1C(=O)[C@H](Cc1ccc(F)cc1)NC(=O)c1cc2cc(C(F)(F)P(=O)(O)O)ccc2s1)c1ccc(-c2nccs2)cc1`, the Ki was 3500 nM in assay [1], 1700 nM in assay [2] and 1000 nM in assay [3].
Take `CC(C)(C)[C@H](NC(=O)c1cc2cc(C(F)(F)P(=O)(O)O)ccc2s1)C(=O)N1CCC[C@H]1C(=O)N(CCC(=O)NCCCCCC#Cc1cccc2c1CN(C1CCC(=O)NC1=O)C2=O)c1ccc(Br)cc1` (some centres not stated): the results for the DC50 in assay [4] and in assay [5] (read-out: DC50) were 1100 nM and over 5 µM, respectively.
Take `CN(C)C(=O)CCN(C(=O)[C@@H]1CCCN1C(=O)[C@@H](NC(=O)c1cc2cc(C(F)(F)P(=O)(O)O)ccc2s1)C(C)(C)C)c1ccc2ccccc2c1`: the Ki in assay [1] was found to be 200 nM; in assay [2], 1000 nM; in assay [3] it was 1200 nM.
In the case of `CN(C)C(=O)CCN(C(=O)[C@@H]1CCCN1C(=O)[C@@H](NC(=O)c1cc2cc(C(F)(F)P(=O)(O)O)ccc2s1)c1ccccc1)c1ccc(-c2nccs2)cc1`, the inhibition constant Ki in assay [1] was 2500 nM; in assay [2], 4000 nM; in assay [3] it was 3200 nM.
Consider `CC(C)(C)[C@H](NC(=O)c1cc2cc(C(F)(F)P(=O)(O)O)ccc2s1)C(=O)N1CCC[C@H]1C(=O)N(CCC(=O)NCCCC#Cc1cccc2c1CN(C1CCC(=O)NC1=O)C2=O)c1ccc2scnc2c1` (some centres not stated), for which the Ki was found to be 400 nM in assay [2] and 1000 nM in assay [3]. Also, the DC50 in assay [4] was 450 nM.
On to `CN(C)C(=O)CCN(C(=O)[C@@H]1CCCN1C(=O)[C@H](Cc1ccc(C(F)(F)F)cc1)NC(=O)c1cc2cc(C(F)(F)P(=O)(O)O)ccc2s1)c1ccc(-c2nccs2)cc1`, for which the Ki in assay [1] amounted to 4000 nM; in assay [2] it was 2500 nM; in assay [3] it was 2300 nM.
As to `CC(C)(C)[C@H](NC(=O)c1cc2cc(C(F)(F)P(=O)(O)O)ccc2s1)C(=O)N1CCC[C@H]1C(=O)N(CCC(=O)NCCCC#Cc1cccc2c1CN(C1CCC(=O)NC1=O)C2=O)c1ccc2sccc2c1` (some centres not stated), the values for the Ki in assay [2] and in assay [3] were 800 nM and 1200 nM, respectively. For the same molecule, the half-maximal degradation concentration (DC50) in assay [4] was 180 nM.
Regarding `CN(CCCC#Cc1cccc2c1CN(C1CCC(=O)NC1=O)C2=O)C(=O)CCN(C(=O)[C@@H]1CCCN1C(=O)[C@@H](NC(=O)c1cc2cc(C(F)(F)P(=O)(O)O)ccc2s1)C(C)(C)C)c1ccc(Br)cc1` (some centres not stated), the results for the DC50 in assay [4] and in assay [5] (read-out: DC50) were 190 nM and over 5 µM, respectively. Also, the Emax (usually the size of the effect at its maximum, as opposed to the concentration needed) in assay [6] is over 95%.
For `CN(C)C(=O)CCN(C(=O)[C@@H]1CCCN1C(=O)[C@@H](NC(=O)c1cc2cc(C(F)(F)P(=O)(O)O)ccc2s1)C(C)(C)C)c1ccc(-c2ccccc2)cc1`, the Ki came to 2000 nM in assay [1], 5200 nM in assay [2] and 3400 nM in assay [3].
